According to US20210379063A1, “ORAL AMINODIHYDROPHTHALAZINEDIONE COMPOSITIONS AND THEIR USE IN THE TREATMENT OF NON-VIRAL HEPATITIS” (Immunopharma Plus D.O.O., priority 2018, published 2021):
Several values for one entry are separate records, joined by “and”; a condition that tells them apart may be missing. Equal values may be shown once. Read-outs that look alike come from different tables or passages of the source.

Tests used:
[1] = Experimental: Title: FaSSGF: Fasted State Simulating Gastric Fluid
Preparation FaSSGF (for 2000 ml)
Name: FeSSGF: Fed State Simulating Gastric Fluid
Name: FaSSIF Fasted State Simulating Intestinal Fluid
Name: FeSSIF Fed State Simulating Intestinal Fluid
For preparation of 2 L media
Name: SCoF (Simulated Colonic Fluid)
Preparation of 100 ml solution
Prior to testing • Lactobacilli drops (100 million per dissolution/20 million per permeation donor compartment) added
Each presented dissolution data is a summary of 3 results.

[2] = test system: toxic hepatitis caused by Acetaminophen; details: for ALT / AST / AST/ALT / GTP / Biochemiluminescence of blood plasma (BCL, quant): Acetaminophen + Tamerit
Experimental: The experiment was carried out on 45 adult male outbred white rats weighing 288.5±12.9 g, in accordance with the recommendations of the international ethics committees on the humane treatment of laboratory animals (EU Council Directive 86/609 EEC dated Nov. 24, 1986). To create an experimental model, an aqueous solution of Acetaminophen was administered intragastrically using a probe at a dosage of 110 mg/kg of body weight, which is about 2 times higher than the maximum allowable daily dose in humans. […] The drug was administered intragastrically, using a probe, in the form of an aqueous solution

For `Nc1cccc2c(=O)[n-][nH]c(=O)c12.[Na+]` [Tamerit, aminodihydrophthalazinedione sodium], the “Dissolution, %” value ([1]; FaSSGF pH 1.6, 15 min) was 88.24%, the “Dissolution, %” value ([1]; FaSSGF pH 1.6, 30 min) was 90.68% and the “Dissolution, %” value ([1]; FaSSIF pH 6.5, 30 min, sodium) was 98.62%. The “Dissolution, %” value ([1]; FaSSIF pH 6.5, 60 min) was 103.11%, the “Dissolution, %” value ([1]; FaSSIF pH 6.5, 90 min) was 102.16% and the “Dissolution, %” value ([1]; FaSSIF pH 6.5, 120 min) was 102.37%. The “Dissolution, %” value ([1]; FaSSIF pH 6.5, 180 min) was 103.78%, the Dissolution, % ([1]; FeSSCoF pH 6.0, 15 min, sodium) was 90% and 90.07% and the Dissolution, % ([1]; FeSSCoF pH 6.0, 2 hr) was 89.21%. For the same compound, the Dissolution, % ([1]; FeSSCoF pH 6.0, 4 hr, sodium) was 100% and 102.12%, the Dissolution, % ([1]; FeSSCoF pH 6.0, 24 hr) was 95.77% and the “Dissolution, %” value ([1]; FeSSGF pH 5.0, 15 min) was 86.83%. For the same compound, the “Dissolution, %” value ([1]; FeSSGF pH 5.0, 30 min) was 77.65%, the “Dissolution, %” value ([1]; FeSSGF pH 5.0, 45 min) was 75.6% and the “Dissolution, %” value ([1]; FeSSGF pH 5.0, 90 min) was 79.42%. For the same compound, the “Dissolution, %” value ([1]; FeSSIF pH 5.0, 30 min) was 79.65%, the “Dissolution, %” value ([1]; FeSSIF pH 5.0, 60 min) was 69.28% and the “Dissolution, %” value ([1]; FeSSIF pH 5.0, 90 min, sodium) was 90% and 87.40%. For the same compound, the “Dissolution, %” value ([1]; FeSSIF pH 5.0, 120 min) was 84.48%, the “Dissolution, %” value ([1]; FeSSIF pH 5.0, 180 min) was 88.50% and the “pH at which Tamerit is the most soluble” value ([1]; Tamerit powder dissolution, FIG. 2) was 6.5. For the same compound, the stability ([1]; colonic conditions) was “very stable”, the stability ([1]; fast and fed conditions of the small intestinal) was “quite stable” and the stability ([1]; fast and fed gastric conditions) was “sufficient stability”. The dissolution ([1]; fast gastric media) was about 90%, the dissolution ([1]; fed gastric media) was 80-90% and the ALT ([2]; 3rd day) was 17.45 ± 1.3 U/L. For the same compound, the AST ([2]; 3rd day) was 23.61 ± 1.2 U/L, the AST/ALT ([2]; 3rd day) was 1.35 ± 0.03 and the GTP ([2]; 3rd day) was 35.8 ± 1.2 U/L. It also gave an ALT ([2]; 5th day) of 12.2 ± 0.9 U/L, an AST ([2]; 5th day) of 15.0 ± 1.0 U/L and an AST/ALT ([2]; 5th day) of 1.24 ± 0.01. For the same compound, the GTP ([2]; 5th day) was 33.8 ± 0.9 U/L, the ALT ([2]; 7th day) was 12.0 ± 0.8 U/L and the AST ([2]; 7th day) was 16.01 ± 2.0 U/L. For the same compound, the AST/ALT ([2]; 7th day) was 1.33 ± 0.02, the GTP ([2]; 7th day) was 30.8 ± 1.8 U/L and the ALT ([2]; 12th day) was 18.0 ± 1.8 U/L. The AST ([2]; 12th day) was 22.1 ± 1.5 U/L, the AST/ALT ([2]; 12th day) was 1.22 ± 0.04 and the GTP ([2]; 12th day) was 29.4 ± 1.5 U/L. The “Biochemiluminescence of blood plasma (BCL, quant)” value ([2]; 3 days) was 213.0 ± 4.0 quant, the “Biochemiluminescence of blood plasma (BCL, quant)” value ([2]; 12 days) was 215.6 ± 5.0 quant and the “signs of toxic hepatitis” value ([2]; rats treated with Tamerit intragastrically) was “less pronounced”.
